Measured values reported in ChEMBL document CHEMBL1201862, “PubChem BioAssay data set” (2004).
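Exposure lasted 48 hours, with cells grown in 96-well plates and compounds tested at five concentrations. Here, GI50 denotes the concentration required for 50% inhibition of growth.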 Calls of active or inactive are those of the source. Cut-off read from the data, not from the text of the source: active = GI50 up to about 1.1 µM and inactive = higher.

What was measured:
Assay in all cases: growth of human tumour cells (NCI), 48 h
RPMI-8226 = tested on: RPMI-8226
OVCAR-5 = tested on: OVCAR-5
SK-OV-3 = tested on: SK-OV-3
HOP-92 = tested on: HOP-92
CAKI-1 = tested on: CAKI-1
SNB-78 = tested on: SNB-78
ACHN = tested on: ACHN
CCRF-CEM = tested on: CCRF-CEM
UO-31 = tested on: UO-31
SF-295 = tested on: SF-295
M14 = tested on: M14
SK-MEL-2 = tested on: SK-MEL-2
HT-29 = tested on: HT-29
NCI-H460 = tested on: NCI-H460
LOX IMVI = tested on: LOX IMVI
SK-MEL-5 = tested on: SK-MEL-5
HCC 2998 = tested on: HCC 2998
T47D = tested on: T47D
MCF7 = tested on: MCF7
PC-3 = tested on: PC-3

SMILES | GI50 (RPMI-8226) | GI50 (OVCAR-5) | GI50 (SK-OV-3) | GI50 (HOP-92) | GI50 (CAKI-1) | GI50 (SNB-78) | GI50 (ACHN) | GI50 (CCRF-CEM) | GI50 (UO-31) | GI50 (SF-295) | GI50 (M14) | GI50 (SK-MEL-2) | GI50 (HT-29) | GI50 (NCI-H460) | GI50 (LOX IMVI) | GI50 (SK-MEL-5) | GI50 (HCC 2998) | GI50 (T47D) | GI50 (MCF7) | GI50 (PC-3)
O=c1nc(NC2CCCCO2)ccn1CCO (stereo not given) | > 100 µM (inactive) | > 100 µM (inactive) | > 100 µM (inactive) | > 100 µM (inactive) | > 100 µM (inactive) | > 100 µM (inactive) | > 100 µM (inactive) | > 100 µM (inactive) | > 100 µM (inactive) | > 100 µM (inactive) | > 100 µM (inactive) | > 100 µM (inactive) | > 100 µM (inactive) | > 100 µM (inactive) | > 100 µM (inactive) | > 100 µM (inactive) | – | – | – | –
c1ccc2c3c([nH]c2c1)C1C2CCCCN2C(c2ccncc2)N1CC3 (stereo not given) | 27.4 µM (inactive) | 35.7 µM (inactive) | 36.6 µM (inactive) | – | 34.4 µM (inactive) | 42.8 µM (inactive) | 46.1 µM (inactive) | 33 µM (inactive) | 11.5 µM (inactive) | 38.9 µM (inactive) | 34.8 µM (inactive) | 39.4 µM (inactive) | 33.1 µM (inactive) | 29.6 µM (inactive) | 37.2 µM (inactive) | 43 µM (inactive) | – | – | – | –
O=C(c1ccc(Cl)cc1)N(C(=S)N1CCN(c2ccccc2)CC1)C1CCCCC1 | 63.5 µM (inactive) | > 100 µM (inactive) | > 100 µM (inactive) | > 100 µM (inactive) | > 100 µM (inactive) | > 100 µM (inactive) | > 100 µM (inactive) | > 100 µM (inactive) | > 100 µM (inactive) | > 100 µM (inactive) | > 100 µM (inactive) | > 100 µM (inactive) | > 100 µM (inactive) | > 100 µM (inactive) | 79.4 µM (inactive) | > 100 µM (inactive) | – | – | – | –
CC1=NN(c2ccccc2)C(=O)C1/N=N/c1ccc(Br)cc1C (stereo not given) | > 100 µM (inactive) | > 100 µM (inactive) | 32.9 µM (inactive) | 38.6 µM (inactive) | 46.2 µM (inactive) | 79.6 µM (inactive) | 37.3 µM (inactive) | > 100 µM (inactive) | – | 72.8 µM (inactive) | 90.4 µM (inactive) | 56.6 µM (inactive) | > 100 µM (inactive) | > 100 µM (inactive) | – | > 100 µM (inactive) | > 100 µM (inactive) | – | – | –
N#Cc1ccccc1NC(=O)/C(=N\Nc1ccc([N+](=O)[O-])cc1)C1C(=O)NC(=O)NC1=O | > 100 µM (inactive) | > 100 µM (inactive) | > 100 µM (inactive) | 3.69 µM (inactive) | 31.4 µM (inactive) | > 100 µM (inactive) | > 100 µM (inactive) | > 100 µM (inactive) | 62.8 µM (inactive) | – | > 100 µM (inactive) | > 100 µM (inactive) | – | > 100 µM (inactive) | > 100 µM (inactive) | > 100 µM (inactive) | > 100 µM (inactive) | – | – | –
COc1ccc(C/C(=N/O)C(=O)NCCc2cc(Br)c(OCCCN(C)C)c(Br)c2)cc1Br [APLYSAMINE 2] | – | 22.3 µM (inactive) | – | – | 25.6 µM (inactive) | 18.5 µM (inactive) | 15.6 µM (inactive) | – | 23.1 µM (inactive) | 18.8 µM (inactive) | 17.7 µM (inactive) | 20.1 µM (inactive) | 5.92 µM (inactive) | 17.3 µM (inactive) | 16.2 µM (inactive) | – | 14.1 µM (inactive) | – | – | –
CCN(CC)c1ccc(/N=N/c2ccc(-c3nc4ccc[n+](C)c4o3)cc2)cc1 | 2.75 µM (inactive) | 3.54 µM (inactive) | 19.5 µM (inactive) | 15.2 µM (inactive) | 12.9 µM (inactive) | 11.4 µM (inactive) | – | 3.27 µM (inactive) | 12.7 µM (inactive) | 14.8 µM (inactive) | 12.1 µM (inactive) | 12 µM (inactive) | 11.3 µM (inactive) | 12.6 µM (inactive) | 4.3 µM (inactive) | 2.97 µM (inactive) | – | – | – | –
CN(C)c1ccc(C2CC(=O)C(C#N)=C(c3ccccc3)NN2C)cc1 (stereo not given) | 13.9 µM (inactive) | > 100 µM (inactive) | 12 µM (inactive) | 21.1 µM (inactive) | 9.82 µM (inactive) | 50.4 µM (inactive) | 11.4 µM (inactive) | – | – | 4.2 µM (inactive) | 5.04 µM (inactive) | 6.05 µM (inactive) | 5.14 µM (inactive) | 5.52 µM (inactive) | 4.93 µM (inactive) | 3.54 µM (inactive) | 22.1 µM (inactive) | – | – | –
CC(C)c1ccc(O)c(Cc2cc(C(C)C)cc(Cc3cc(C(C)C)ccc3O)c2O)c1 | 2.08 µM (inactive) | 1.75 µM (inactive) | 1.68 µM (inactive) | 1.79 µM (inactive) | 1.53 µM (inactive) | 2.05 µM (inactive) | 3.56 µM (inactive) | 3.39 µM (inactive) | 1.68 µM (inactive) | 1.88 µM (inactive) | 1.66 µM (inactive) | 1.61 µM (inactive) | 2.25 µM (inactive) | 1.83 µM (inactive) | – | 1.62 µM (inactive) | 1.78 µM (inactive) | – | – | –
COc1ccccc1/C=C1\CCC(CCN(C)C)(C2=CCCC2)C1=O (stereo not given) | 17.8 µM (inactive) | 19.1 µM (inactive) | – | 16.9 µM (inactive) | 20.9 µM (inactive) | 23.9 µM (inactive) | 16.7 µM (inactive) | 16.5 µM (inactive) | 17.6 µM (inactive) | 17.3 µM (inactive) | 15.5 µM (inactive) | 19.5 µM (inactive) | 15.3 µM (inactive) | 14.8 µM (inactive) | 17.1 µM (inactive) | 13.8 µM (inactive) | 18 µM (inactive) | – | – | –
CCOC(=O)C(=CNC(=S)Nc1c(CC)cccc1CC)C(=O)OCC | > 100 µM (inactive) | > 100 µM (inactive) | > 100 µM (inactive) | 94.4 µM (inactive) | > 100 µM (inactive) | – | > 100 µM (inactive) | > 100 µM (inactive) | > 100 µM (inactive) | > 100 µM (inactive) | > 100 µM (inactive) | > 100 µM (inactive) | > 100 µM (inactive) | > 100 µM (inactive) | > 100 µM (inactive) | > 100 µM (inactive) | > 100 µM (inactive) | > 100 µM (inactive) | > 100 µM (inactive) | > 100 µM (inactive)
Cc1ccc(S(=O)(=O)N/N=C2\CCCCCCCCCCC2CN(C)C)cc1 (stereo not given) | 38.7 µM (inactive) | 16.3 µM (inactive) | 20 µM (inactive) | 10.3 µM (inactive) | 26.7 µM (inactive) | – | 20.1 µM (inactive) | 15.7 µM (inactive) | 9.04 µM (inactive) | 16.8 µM (inactive) | 17.1 µM (inactive) | 10.6 µM (inactive) | 15.5 µM (inactive) | 12.4 µM (inactive) | 17.1 µM (inactive) | 11.2 µM (inactive) | 8.43 µM (inactive) | 13.4 µM (inactive) | 17 µM (inactive) | 15.3 µM (inactive)
O=c1c2cc(Cl)ccc2sc2cccc(Cl)c12 | > 100 µM (inactive) | > 100 µM (inactive) | – | > 100 µM (inactive) | > 100 µM (inactive) | > 100 µM (inactive) | > 100 µM (inactive) | > 100 µM (inactive) | > 100 µM (inactive) | > 100 µM (inactive) | > 100 µM (inactive) | > 100 µM (inactive) | > 100 µM (inactive) | > 100 µM (inactive) | > 100 µM (inactive) | – | – | – | – | –
COC(=O)C1=C(O)C(C(=O)OC)[C@]2(O)[C@H](C(=O)OC)[C@H]1C[C@@H](c1ccc(OC)c(OC)c1)[C@H]2C(=O)OC (stereo not given in full) | 3.27 µM (inactive) | 23.6 µM (inactive) | 17.6 µM (inactive) | 21.2 µM (inactive) | 25.8 µM (inactive) | – | 25.8 µM (inactive) | 0.129 µM (active) | 24.5 µM (inactive) | 17.9 µM (inactive) | 12.3 µM (inactive) | 20 µM (inactive) | 36.9 µM (inactive) | 14.7 µM (inactive) | 13.4 µM (inactive) | 13.3 µM (inactive) | 11.7 µM (inactive) | 15.9 µM (inactive) | 17.3 µM (inactive) | 25.4 µM (inactive)
O=C1c2cc([N+](=O)[O-])sc2C(=O)c2c([N+](=O)[O-])csc21 | 0.282 µM (active) | 1.65 µM (inactive) | 1.68 µM (inactive) | 0.29 µM (active) | 1.11 µM (active) | – | 0.324 µM (active) | 0.0759 µM (active) | 1.87 µM (inactive) | 0.968 µM (active) | 0.367 µM (active) | 1.53 µM (inactive) | 1.17 µM (inactive) | 1.55 µM (inactive) | 0.112 µM (active) | 0.166 µM (active) | 0.782 µM (active) | 0.69 µM (active) | 0.365 µM (active) | 1.33 µM (inactive)
Cn1cnc([N+](=O)[O-])c1[Se]c1nc(N)nc2c1ncn2C1OC(CO)C(O)C1O (stereo not given) | > 100 µM (inactive) | > 100 µM (inactive) | > 100 µM (inactive) | > 100 µM (inactive) | > 100 µM (inactive) | – | > 100 µM (inactive) | > 100 µM (inactive) | > 100 µM (inactive) | > 100 µM (inactive) | > 100 µM (inactive) | > 100 µM (inactive) | > 100 µM (inactive) | > 100 µM (inactive) | > 100 µM (inactive) | > 100 µM (inactive) | > 100 µM (inactive) | > 100 µM (inactive) | > 100 µM (inactive) | > 100 µM (inactive)
